In ChEMBL document CHEMBL1201862, “PubChem BioAssay data set” (2004):
Active and inactive are the calls of the source.

Key:
Streptokinase A = biological target: T1, Streptokinase A (Streptococcus pyogenes serotype M1, UniProt P10520); assay: S. pyogenes streptokinase expression inhibitors, potency, dose response, plasminogen activation absorbance, OD405 (AID 1914); assay type: functional, Streptococcus pyogenes M1 GAS;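 also: secreted streptokinase activity via plasminogen activation per viability signal from cell pellet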
T1 sequence (P10520 whole entry): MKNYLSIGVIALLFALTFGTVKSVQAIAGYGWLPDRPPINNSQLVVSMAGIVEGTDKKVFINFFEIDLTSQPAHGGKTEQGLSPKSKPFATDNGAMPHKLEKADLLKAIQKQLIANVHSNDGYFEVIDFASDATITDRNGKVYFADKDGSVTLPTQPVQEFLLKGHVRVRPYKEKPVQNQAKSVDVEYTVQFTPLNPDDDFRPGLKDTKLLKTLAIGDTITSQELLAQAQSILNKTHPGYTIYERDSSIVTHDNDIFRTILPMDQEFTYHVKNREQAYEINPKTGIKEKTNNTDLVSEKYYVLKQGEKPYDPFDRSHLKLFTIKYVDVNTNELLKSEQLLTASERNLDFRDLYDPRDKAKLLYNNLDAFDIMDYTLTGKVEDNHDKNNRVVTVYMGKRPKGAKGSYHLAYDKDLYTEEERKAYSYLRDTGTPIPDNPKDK

Streptococcus = assay: Group A Streptococcus viability loss, dose response, counter-screen for streptokinase expression inhibitor project, luminescence, BacTiterGlo (AID 1915); assay type: functional, organism-based;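 also: potency for reduction of bacterial viability or growth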
[1] = biological target: Neurotensin receptor type 1 (Homo sapiens, UniProt P30989); assay type: functional;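 also: Image-based confirmatory dose-response assay measuring agonist activity at NTR1; NTR1-expressing U2OS osteosarcoma cells imaged for beta-arrestin GFP spot formation; agonist potency where compounds increase beta-arrestin recruitment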
[2] = system: Streptococcus sp. 'group A'; assay: growth inhibition of control SK(-) GAS strain, dose response, counter-screen for streptokinase expression inhibitor project, luminescence, kanamycin, BacTiterGlo, confirmation (AID 1900); assay type: functional, organism-based
[3] = biological target: T2, RNA-binding protein pos-1 (Caenorhabditis elegans, UniProt G5EF15); assay: inhibitors of POS-1/mex-3 RNA binding, dose response, biochemical, fluorescence polarization (AID 1964);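 also: purified POS-1 fused to maltose binding protein made in E. coli; potency of compounds blocking POS-1 binding to fluorescent RNA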
T2 sequence (G5EF15 whole entry): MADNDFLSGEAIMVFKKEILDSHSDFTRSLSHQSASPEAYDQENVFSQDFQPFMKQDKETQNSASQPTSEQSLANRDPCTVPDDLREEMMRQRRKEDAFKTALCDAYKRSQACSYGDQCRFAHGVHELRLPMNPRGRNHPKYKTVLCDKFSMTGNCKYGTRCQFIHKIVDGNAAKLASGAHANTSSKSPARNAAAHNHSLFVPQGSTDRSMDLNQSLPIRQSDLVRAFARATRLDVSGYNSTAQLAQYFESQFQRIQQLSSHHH

[4] = biological target: T3, Zinc finger protein mex-5 (Caenorhabditis elegans, UniProt Q9XUB2); assay: MEX-5/TCR-2 RNA interaction inhibitors, dose response, biochemical, C. elegans, fluorescence polarization (AID 1960)
T3 sequence (Q9XUB2 whole entry): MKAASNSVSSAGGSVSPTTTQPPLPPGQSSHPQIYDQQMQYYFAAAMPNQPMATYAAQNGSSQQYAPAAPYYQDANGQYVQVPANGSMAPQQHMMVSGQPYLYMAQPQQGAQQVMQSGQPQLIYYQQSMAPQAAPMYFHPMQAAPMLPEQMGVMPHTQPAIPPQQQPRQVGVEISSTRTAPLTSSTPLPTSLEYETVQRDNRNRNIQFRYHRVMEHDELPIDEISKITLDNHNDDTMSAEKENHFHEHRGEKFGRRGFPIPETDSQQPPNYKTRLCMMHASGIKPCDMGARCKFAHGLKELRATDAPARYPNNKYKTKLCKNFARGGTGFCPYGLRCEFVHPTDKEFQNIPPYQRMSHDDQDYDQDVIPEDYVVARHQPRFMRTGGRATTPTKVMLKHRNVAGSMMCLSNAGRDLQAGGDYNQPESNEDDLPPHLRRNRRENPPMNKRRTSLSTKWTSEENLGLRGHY

[5] = biological target: DNA dC->dU-editing enzyme APOBEC-3A (Homo sapiens, UniProt P31941); assay: Dose Response confirmation of small molecule APOBEC3A DNA Deaminase Inhibitors via a fluorescence-based single-stranded DNA deaminase assay. [Related pubchem assays (depositor defined):AID493011, AID493024]; assay type: functional
[6] = biological target: T4, Carboxy-terminal domain RNA polymerase II polypeptide A small phosphatase 1 (Homo sapiens, UniProt Q9GZU7); assay: inhibitors of CTDSP1, concentration-response testing, biochemical assay, absorbance-based, actives from ultra-high-throughput screening (AID 540297); assay type: functional
T4 sequence (Q9GZU7 whole entry): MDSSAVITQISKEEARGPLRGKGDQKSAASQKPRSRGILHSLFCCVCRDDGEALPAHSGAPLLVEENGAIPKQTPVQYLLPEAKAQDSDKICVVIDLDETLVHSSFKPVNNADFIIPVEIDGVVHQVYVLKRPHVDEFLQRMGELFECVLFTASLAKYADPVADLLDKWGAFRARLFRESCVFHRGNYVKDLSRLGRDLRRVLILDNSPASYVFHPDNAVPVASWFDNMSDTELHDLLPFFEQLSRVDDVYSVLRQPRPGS

[7] = biological target: Peroxisome proliferator-activated receptor gamma/Nuclear receptor coactivator 3 (Homo sapiens, UniProt P37231); assay: (§1) TR-FRET dose response biochemical High Throughput Screening assay for agonists of the steroid receptor coactivator 3 (SRC-3) recruitment by the peroxisome proliferator-activated receptor gamma (PPAR gamma): non-selective agonists. [Related pubchem assays: 1301 (Confirmation screen.), 1048 (Primary screen.)]; assay type: functional
Cytochrome P450 2D6 = Cytochrome P450 2D6 (Homo sapiens, UniProt P10635);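 also: CYP2D6 member of a cytochrome P450 panel assay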
[8] = biological target: Peroxisome proliferator-activated receptor gamma/Nuclear receptor coactivator 1 (Homo sapiens, UniProt P37231); assay: as §1, with “1 (SRC-1)” for “3 (SRC-3)”, “assays (depositor defined):AID1300, AID1808, AID504735, AID631]” for “assays: 1301 (Confirmation screen.), 1048 (Primary screen.)]”; assay type: protein assay
Cytochrome P450 2C9 = Cytochrome P450 2C9 (Homo sapiens, UniProt P11712)
[9] = biological target: Peroxisome proliferator-activated receptor gamma/Nuclear receptor coactivator 2 (Homo sapiens, UniProt P37231); assay: TR-FRET dose response biochemical High Throughput Screening assay for agonists of the steroid receptor coactivator 2 (SRC-2) recruitment by the peroxisome proliferator-activated receptor gamma (PPAR gamma): non-selective agonists. [Related pubchem assays: 1297, 1032 ]; assay type: functional
Cytochrome P450 2C19 = Cytochrome P450 2C19 (Homo sapiens, UniProt P33261); assay: Cytochrome panel assay with activity outcomes. Panel member name: p450-cyp2c19 Compounds with AC50 equal or less than 10 uM are considered active; assay type: functional; details: read-out: AC50
[10] = biological target: T5, Serine/threonine-protein phosphatase (Candida dubliniensis (strain CD36 / CBS 7987 / NCPF 3949 / NRRLY-17841) (Yeast), UniProt B9W6M3); assay: calcineurin pathway inhibitors in yeast reporter, dose response, S. cerevisiae, CDRE-lacZ, luminescence, secondary (AID 2388); assay type: functional, cell-based;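 also: yeast reporter cells carrying a calcineurin-responsive lacZ construct stimulated with calcium chloride; luminescent beta-galactosidase reporter signal in whole cells rather than isolated phosphatase activity; potency for inhibition where a drop in reporter signal means calcineurin blockade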
T5 sequence (B9W6M3 whole entry): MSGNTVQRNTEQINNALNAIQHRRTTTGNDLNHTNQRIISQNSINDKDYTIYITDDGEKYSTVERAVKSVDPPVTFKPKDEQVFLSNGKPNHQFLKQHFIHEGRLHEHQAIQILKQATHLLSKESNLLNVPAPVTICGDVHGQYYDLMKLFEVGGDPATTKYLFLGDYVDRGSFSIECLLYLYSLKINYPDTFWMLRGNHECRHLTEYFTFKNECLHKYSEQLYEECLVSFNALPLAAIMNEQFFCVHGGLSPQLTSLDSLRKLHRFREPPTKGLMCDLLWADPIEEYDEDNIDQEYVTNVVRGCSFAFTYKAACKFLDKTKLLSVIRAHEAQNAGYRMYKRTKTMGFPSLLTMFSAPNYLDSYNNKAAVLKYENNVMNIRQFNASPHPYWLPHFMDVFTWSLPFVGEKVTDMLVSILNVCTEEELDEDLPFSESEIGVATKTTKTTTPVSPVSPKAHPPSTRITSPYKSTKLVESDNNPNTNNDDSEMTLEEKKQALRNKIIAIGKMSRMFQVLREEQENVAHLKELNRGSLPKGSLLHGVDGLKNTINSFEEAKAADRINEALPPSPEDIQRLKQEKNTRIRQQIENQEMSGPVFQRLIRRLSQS

[11] = C. albicans growth with fluconazole, confirmation, fluorescence, retest (AID 2467); assay type: functional, cell-based
[12] = biological target: ATP-dependent molecular chaperone HSP82 (Candida albicans (strain WO-1) (Yeast), UniProt C4YTQ8); assay: loss of DOC-induced GRE-beta-galactosidase reporter signal, dose response, Hsp90 inhibitor project, S. cerevisiae, luminescence (AID 2400); assay type: functional, cell-based;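 also: beta-galactosidase luminescence from glucocorticoid response element reporter as proxy for Hsp90 function; inhibitor potency where signal loss means Hsp90 inhibition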
[13] = NIH-3T3 fibroblast cytotoxicity, dose response, cytotoxicity control, cell-based, fluorescence, Alamar Blue, secondary assay (AID 2327); assay type: functional;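 also: NIH-3T3 mouse fibroblasts cultured with fluconazole at 8 µg/mL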
[14] = biological target: Heat shock protein HSP 90-alpha (Homo sapiens, UniProt P07900); assay type: functional, organism-based
Escherichia coli [15] = assay: microbe, parasite or virus in culture
Phospholipase A2 = Phospholipase A2 (Homo sapiens, UniProt P04054); assay type: functional;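 also: confirmatory dose-response counterscreen on phospholipase A2, testing hits that came from an ultra-high-throughput screen for ATG4B inhibitors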
Cysteine protease ATG4B = biological target: T6, Cysteine protease ATG4B (Homo sapiens, UniProt Q9Y4P1); assay type: functional;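 also: Fluorescence-based dose-response confirmation assay measuring inhibition of ATG4B activity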
T6 sequence (Q9Y4P1 whole entry): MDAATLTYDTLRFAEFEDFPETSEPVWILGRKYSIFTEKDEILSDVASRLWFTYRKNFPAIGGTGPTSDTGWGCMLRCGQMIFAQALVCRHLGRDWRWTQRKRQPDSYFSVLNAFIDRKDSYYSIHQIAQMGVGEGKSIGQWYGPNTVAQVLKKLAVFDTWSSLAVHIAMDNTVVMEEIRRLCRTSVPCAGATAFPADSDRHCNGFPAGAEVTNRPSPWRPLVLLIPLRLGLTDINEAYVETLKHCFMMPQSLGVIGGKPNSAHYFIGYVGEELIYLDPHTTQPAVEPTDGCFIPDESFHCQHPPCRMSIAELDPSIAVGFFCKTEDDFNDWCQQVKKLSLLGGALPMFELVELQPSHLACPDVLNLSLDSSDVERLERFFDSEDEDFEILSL

Protein Tat = biological target: T7, Protein Tat (Human immunodeficiency virus type 1 group M subtype B (isolate HXB2)(HIV-1), UniProt P04608); assay type: functional;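 also: tat binding to TAR RNA read out by fluorescence polarization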
T7 sequence (P04608 whole entry): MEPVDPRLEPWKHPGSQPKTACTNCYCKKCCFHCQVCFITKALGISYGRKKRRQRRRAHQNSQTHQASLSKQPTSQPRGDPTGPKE

Escherichia coli [16] = assay: microbe, parasite or virus in culture; remark: listed apart in the source

Sequence of Cytochrome P450 2D6 (P10635 whole entry): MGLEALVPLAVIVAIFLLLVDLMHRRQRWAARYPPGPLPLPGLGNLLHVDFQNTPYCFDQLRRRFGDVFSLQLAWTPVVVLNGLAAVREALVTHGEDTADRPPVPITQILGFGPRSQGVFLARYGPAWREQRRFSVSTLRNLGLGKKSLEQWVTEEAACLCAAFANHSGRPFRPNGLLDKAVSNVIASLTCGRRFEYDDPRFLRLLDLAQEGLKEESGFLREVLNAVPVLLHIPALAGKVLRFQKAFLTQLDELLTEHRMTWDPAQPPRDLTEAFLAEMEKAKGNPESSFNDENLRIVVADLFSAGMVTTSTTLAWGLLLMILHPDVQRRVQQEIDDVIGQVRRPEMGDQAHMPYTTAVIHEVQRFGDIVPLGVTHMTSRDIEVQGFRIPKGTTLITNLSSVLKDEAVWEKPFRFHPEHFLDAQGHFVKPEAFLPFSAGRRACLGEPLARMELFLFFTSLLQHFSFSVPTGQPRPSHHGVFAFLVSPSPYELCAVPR
Sequence of Cytochrome P450 2C9 (P11712 whole entry): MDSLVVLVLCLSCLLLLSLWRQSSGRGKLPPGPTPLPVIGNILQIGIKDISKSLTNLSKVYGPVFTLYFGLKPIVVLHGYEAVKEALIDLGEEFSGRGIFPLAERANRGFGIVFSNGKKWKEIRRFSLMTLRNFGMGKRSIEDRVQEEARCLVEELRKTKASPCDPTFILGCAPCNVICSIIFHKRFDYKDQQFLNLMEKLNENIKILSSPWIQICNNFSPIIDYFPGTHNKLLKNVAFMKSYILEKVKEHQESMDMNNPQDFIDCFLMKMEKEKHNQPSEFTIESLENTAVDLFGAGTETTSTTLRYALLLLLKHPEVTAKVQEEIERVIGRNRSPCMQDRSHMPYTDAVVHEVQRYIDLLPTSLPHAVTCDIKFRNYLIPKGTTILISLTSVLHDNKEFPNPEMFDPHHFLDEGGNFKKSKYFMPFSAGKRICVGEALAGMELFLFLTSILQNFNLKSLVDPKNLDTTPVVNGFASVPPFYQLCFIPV
Sequence of Cytochrome P450 2C19 (P33261 whole entry): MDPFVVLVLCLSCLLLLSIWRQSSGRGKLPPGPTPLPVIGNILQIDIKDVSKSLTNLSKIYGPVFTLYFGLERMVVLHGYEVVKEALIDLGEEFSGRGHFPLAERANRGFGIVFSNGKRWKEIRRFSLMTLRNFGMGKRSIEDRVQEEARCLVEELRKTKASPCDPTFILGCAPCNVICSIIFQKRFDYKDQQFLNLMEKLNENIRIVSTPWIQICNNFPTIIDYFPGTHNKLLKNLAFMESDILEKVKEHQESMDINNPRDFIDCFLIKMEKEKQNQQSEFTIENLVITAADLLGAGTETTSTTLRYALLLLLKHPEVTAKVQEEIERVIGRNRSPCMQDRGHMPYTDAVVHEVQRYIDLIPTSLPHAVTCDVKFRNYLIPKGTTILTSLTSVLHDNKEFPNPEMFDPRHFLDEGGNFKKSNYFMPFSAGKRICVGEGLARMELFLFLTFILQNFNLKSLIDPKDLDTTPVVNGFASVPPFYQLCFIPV
Sequence of Neurotensin receptor type 1 (P30989 whole entry): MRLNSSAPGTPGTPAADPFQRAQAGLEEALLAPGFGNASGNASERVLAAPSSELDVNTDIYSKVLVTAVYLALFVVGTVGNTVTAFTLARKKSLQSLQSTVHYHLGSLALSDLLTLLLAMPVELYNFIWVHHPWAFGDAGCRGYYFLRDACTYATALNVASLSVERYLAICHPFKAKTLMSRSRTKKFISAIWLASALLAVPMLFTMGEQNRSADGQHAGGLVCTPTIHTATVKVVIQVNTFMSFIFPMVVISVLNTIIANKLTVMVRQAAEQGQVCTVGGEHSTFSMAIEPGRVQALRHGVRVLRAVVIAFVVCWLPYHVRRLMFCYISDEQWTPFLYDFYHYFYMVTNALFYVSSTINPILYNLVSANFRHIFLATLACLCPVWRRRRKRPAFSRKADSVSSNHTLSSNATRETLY
Sequence of ATP-dependent molecular chaperone HSP82 (C4YTQ8 whole entry): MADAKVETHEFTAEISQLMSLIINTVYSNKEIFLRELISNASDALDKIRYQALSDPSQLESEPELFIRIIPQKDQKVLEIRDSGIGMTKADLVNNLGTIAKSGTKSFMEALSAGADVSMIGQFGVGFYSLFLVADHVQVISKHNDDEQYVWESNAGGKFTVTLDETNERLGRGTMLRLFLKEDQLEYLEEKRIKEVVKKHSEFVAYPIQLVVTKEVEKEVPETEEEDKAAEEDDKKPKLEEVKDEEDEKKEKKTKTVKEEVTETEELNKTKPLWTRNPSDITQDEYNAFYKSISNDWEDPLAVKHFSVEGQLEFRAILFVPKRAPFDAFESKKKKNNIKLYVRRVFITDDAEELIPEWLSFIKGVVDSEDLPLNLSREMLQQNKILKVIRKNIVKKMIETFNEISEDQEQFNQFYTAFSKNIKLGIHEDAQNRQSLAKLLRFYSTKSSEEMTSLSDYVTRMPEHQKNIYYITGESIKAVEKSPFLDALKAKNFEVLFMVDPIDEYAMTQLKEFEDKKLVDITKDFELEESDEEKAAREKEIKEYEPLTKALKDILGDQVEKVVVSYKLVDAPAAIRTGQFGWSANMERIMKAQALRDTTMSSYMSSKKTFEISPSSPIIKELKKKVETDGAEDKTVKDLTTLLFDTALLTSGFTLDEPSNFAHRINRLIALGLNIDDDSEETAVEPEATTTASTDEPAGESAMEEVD
Sequence of DNA dC->dU-editing enzyme APOBEC-3A (P31941 whole entry, the tested form may be a part): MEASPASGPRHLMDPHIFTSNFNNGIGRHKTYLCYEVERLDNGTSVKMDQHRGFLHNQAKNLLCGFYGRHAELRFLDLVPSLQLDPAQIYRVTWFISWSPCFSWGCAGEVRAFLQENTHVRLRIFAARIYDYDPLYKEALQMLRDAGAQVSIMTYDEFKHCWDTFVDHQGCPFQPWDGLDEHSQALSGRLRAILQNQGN
Sequence of Phospholipase A2 (P04054 whole entry): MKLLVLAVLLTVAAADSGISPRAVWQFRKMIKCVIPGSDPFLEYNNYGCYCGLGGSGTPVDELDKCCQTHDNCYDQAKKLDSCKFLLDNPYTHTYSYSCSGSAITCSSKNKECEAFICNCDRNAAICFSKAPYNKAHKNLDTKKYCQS
Sequence of Peroxisome proliferator-activated receptor gamma/Nuclear receptor coactivator 3 (P37231 whole entry): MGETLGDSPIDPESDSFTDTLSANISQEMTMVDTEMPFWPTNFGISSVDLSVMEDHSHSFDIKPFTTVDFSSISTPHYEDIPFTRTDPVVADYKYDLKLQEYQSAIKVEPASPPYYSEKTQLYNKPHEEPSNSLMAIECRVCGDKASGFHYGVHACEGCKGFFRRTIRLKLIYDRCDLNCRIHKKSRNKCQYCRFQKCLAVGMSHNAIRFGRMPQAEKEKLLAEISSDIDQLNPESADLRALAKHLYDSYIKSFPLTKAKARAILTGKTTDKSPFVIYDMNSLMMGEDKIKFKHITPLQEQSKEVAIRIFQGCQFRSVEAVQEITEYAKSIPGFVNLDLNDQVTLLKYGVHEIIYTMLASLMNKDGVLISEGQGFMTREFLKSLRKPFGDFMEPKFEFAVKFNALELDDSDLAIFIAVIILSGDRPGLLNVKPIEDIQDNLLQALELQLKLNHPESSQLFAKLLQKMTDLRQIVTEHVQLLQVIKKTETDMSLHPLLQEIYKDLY
Sequence of Peroxisome proliferator-activated receptor gamma/Nuclear receptor coactivator 3 (Q9Y6Q9 whole entry, further chain): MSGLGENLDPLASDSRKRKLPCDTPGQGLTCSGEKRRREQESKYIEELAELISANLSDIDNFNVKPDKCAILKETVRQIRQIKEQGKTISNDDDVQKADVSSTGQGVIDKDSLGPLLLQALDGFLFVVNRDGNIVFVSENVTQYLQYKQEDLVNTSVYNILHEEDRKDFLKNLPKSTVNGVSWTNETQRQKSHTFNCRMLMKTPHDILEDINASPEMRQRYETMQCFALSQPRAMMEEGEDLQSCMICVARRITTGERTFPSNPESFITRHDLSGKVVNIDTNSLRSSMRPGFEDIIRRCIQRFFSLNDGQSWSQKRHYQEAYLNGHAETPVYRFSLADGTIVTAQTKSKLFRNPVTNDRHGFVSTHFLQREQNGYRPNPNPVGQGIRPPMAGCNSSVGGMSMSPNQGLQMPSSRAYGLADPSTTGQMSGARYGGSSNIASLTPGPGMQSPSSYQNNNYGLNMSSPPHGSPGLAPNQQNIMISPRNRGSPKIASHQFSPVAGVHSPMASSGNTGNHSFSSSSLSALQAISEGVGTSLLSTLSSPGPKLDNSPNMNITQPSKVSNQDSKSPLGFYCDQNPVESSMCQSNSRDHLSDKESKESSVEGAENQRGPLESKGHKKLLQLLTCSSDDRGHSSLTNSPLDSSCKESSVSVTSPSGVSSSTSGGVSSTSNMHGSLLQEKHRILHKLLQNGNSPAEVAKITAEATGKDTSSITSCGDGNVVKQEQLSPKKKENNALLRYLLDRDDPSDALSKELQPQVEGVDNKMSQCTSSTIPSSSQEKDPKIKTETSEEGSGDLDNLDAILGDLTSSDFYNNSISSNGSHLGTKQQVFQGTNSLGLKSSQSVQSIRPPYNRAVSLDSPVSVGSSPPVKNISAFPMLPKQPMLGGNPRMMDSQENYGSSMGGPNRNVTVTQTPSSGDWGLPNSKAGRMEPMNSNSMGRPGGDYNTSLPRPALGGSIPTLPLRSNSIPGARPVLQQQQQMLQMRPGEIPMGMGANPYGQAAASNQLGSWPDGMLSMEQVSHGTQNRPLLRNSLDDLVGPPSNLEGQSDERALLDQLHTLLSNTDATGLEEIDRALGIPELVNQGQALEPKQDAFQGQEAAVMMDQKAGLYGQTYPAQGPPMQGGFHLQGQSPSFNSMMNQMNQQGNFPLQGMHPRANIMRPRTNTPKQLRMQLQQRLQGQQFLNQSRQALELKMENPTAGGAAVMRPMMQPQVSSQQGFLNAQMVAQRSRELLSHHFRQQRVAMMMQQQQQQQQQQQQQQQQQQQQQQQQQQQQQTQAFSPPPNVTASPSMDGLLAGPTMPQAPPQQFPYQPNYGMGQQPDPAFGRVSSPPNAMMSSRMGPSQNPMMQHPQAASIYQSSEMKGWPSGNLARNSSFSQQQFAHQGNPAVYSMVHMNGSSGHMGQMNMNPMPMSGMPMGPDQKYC

COc1ccc(OC)c(N/C=C2/C(=O)NC(=S)N(Cc3ccccc3)C2=O)c1
EC50 (Streptokinase A): > 150 µM (not active) | EC50 (Streptococcus): > 150 µM (not active) | EC50 [1]: 38.3 µM (inactive) | EC50 [2]: > 150 µM (not active) | EC50 [3]: > 300 µM (not active) | EC50 [4]: > 300 µM (inconclusive)

CC(C)[N+]12CCC(CC1)C(C(O)(c1ccccc1)c1ccccc1)C2 (stereo not drawn)
IC50 [5]: 2.71 µM (active) | IC50 [6]: 8.96 µM (active)

CCn1c(=O)cc(SCC(=O)Nc2cc(OC)c(OC)c(OC)c2)c2ccccc21
EC50 [7]: > 79.4 µM (not active) | AC50 (Cytochrome P450 2D6): inconclusive | EC50 [8]: > 79.4 µM (inactive) | AC50 (Cytochrome P450 2C9): inconclusive | EC50 [9]: 76.2 µM (not active) | AC50 (Cytochrome P450 2C19): 0.355 µM (inconclusive)

Oc1c(C(c2ccc(Cl)cc2)N2CCCC2)cc(Cl)c2cccnc12 (stereo not drawn)
EC50 [10]: > 180 µM (inactive) | EC50 [11]: 0.135 µM (active) | EC50 (Streptococcus): 1.41 µM (active) | EC50 [2]: 1.34 µM (active) | EC50 [12]: 22.5 µM (active) | EC50 [13]: 15 µM (active) | AC50 [14]: 2.02 µM (active)

O=C(CCSc1ccccc1)NCC1CCCO1 (stereo not drawn)
AC50 (Escherichia coli [15]): 30.4 µM (active)

CN(C)[C@@H]1C(O)=C(C(N)=O)C(=O)[C@@]2(O)C(O)=C3C(=O)c4c(O)ccc(Cl)c4[C@@](C)(O)C3C[C@@H]12 (stereo partly drawn)
IC50 (Phospholipase A2): 5.75 µM (active) | AC50 (Escherichia coli [15]): 47 µM (active) | IC50 (Cysteine protease ATG4B): 6.14 µM (active) | IC50 (Protein Tat): > 100 µM (active) | AC50 (Escherichia coli [16]): 1.2 µM (active)

Nc1ccc(S(=O)(=O)NCCS(=O)(=O)O)cc1
AC50 (Cytochrome P450 2D6): inconclusive
